Drawing on patent US12421211B2, “Heterocyclic compounds” (Hoffmann-La Roche Inc., priority 2021, dated 2025), this text covers IC90 for 13 molecules.

SMILES strings stand for the structures. Structures can show the parent of a compound that is named as a salt.

The first assay has as its system Acinetobacter baumannii ATCC17961. Briefly: Antimicrobial susceptibility testing: 90% growth inhibitory concentration (IC90) determination. The assay is classed as cell-based. The conditions noted are these: Acinetobacter baumannii, ATCC17961, 16 h, 90% growth inhibitory concentration, Acinetobacter baumannii ATCC17961, Iso-Sensitest broth, OD 600 nm over 16 h; read-out: ATCC 17961 IC90. The method, boiled down:
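Growth inhibition derived in log phase from OD600 kinetics (every 20 minutes, 16h, 35±2° C) of ATCC17961 in Iso-Sensitest medium, inoculum ~5×10^5 CFU/ml. Compounds tested as twofold series, 10 points (e.g. 50 to 0.097 μM final); IC90 and IC50 reported.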
Consider `Cc1nn(CCCO)cc1-c1ccc(-c2cnc(C(=O)Nc3ccc(C(=O)N4CCN(C(=O)[C@@H]5C[C@@H](O)C[N+]5(C)C)CC4)c(Cl)c3)n2C)c(F)c1F` [Example F16, N-[3-chloro-4-[4-[(2S,4R)-4-hydroxy-1,1-dimethyl-pyrrolidin-1-ium-2-carbonyl]piperazine-1-carbonyl]phenyl]-5-[2,3-difluoro-4-[1-(3-hydroxypropyl)-3-methyl-pyrazol-4-yl]phenyl]-1-methyl-imidazole-2-carboxamide; formate], for which the IC90 – broadly, the concentration at which the effect reaches the 90% level – came to 240 nM.

As for `Cc1nn(CCn2ccccc2=O)cc1-c1ccc(-c2cnc(C(=O)Nc3ccc(C(=O)N4CCN(C(=O)C5CC[N+](C)(C)CC5)CC4)c(Cl)c3)n2C)c(F)c1F` [Example F46, N-[3-chloro-4-[4-(1,1-dimethylpiperidin-1-ium-4-carbonyl)piperazine-1-carbonyl]phenyl]-5-[2,3-difluoro-4-[3-methyl-1-[2-(2-oxo-1-pyridyl)ethyl]pyrazol-4-yl]phenyl]-1-methyl-imidazole-2-carboxamide; formate], the IC90 came out at 1100 nM.

With `Cc1nn(CC(=O)Nc2ccc(C#N)nc2)cc1-c1ccc(-c2cnc(C(=O)Nc3ccc(C(=O)N4CCN(C(=O)C5CC[N+](C)(C)CC5)CC4)c(Cl)c3)n2C)c(F)c1F` [Example G34, N-[3-chloro-4-[4-(1,1-dimethylpiperidin-1-ium-4-carbonyl)piperazine-1-carbonyl]phenyl]-5-[4-[1-[2-[(6-cyano-3-pyridyl)amino]-2-oxo-ethyl]-3-methyl-pyrazol-4-yl]-2,3-difluoro-phenyl]-1-methyl-imidazole-2-carboxamide; formate], the 90% effect concentration (IC90) was determined as 68 nM.

`COCCn1nc(C)c(-c2ccc(-c3cnc(C(=O)Nc4ccc(C(=O)N5CCN(C(=O)C6CC[N+](C)(C)CC6)CC5)c(Cl)c4)n3C)cc2)c1C` [Example A3, N-[3-chloro-4-[4-(1,1-dimethylpiperidin-1-ium-4-carbonyl)piperazine-1-carbonyl]phenyl]-5-[4-[1-(2-methoxyethyl)-3,5-dimethyl-pyrazol-4-yl]phenyl]-1-methyl-imidazole-2-carboxamide; formate]: the concentration for an effect of 90% (IC90) was 230 nM.

Consider `COc1ccc(-c2[nH]ncc2-c2ccc(-c3cnc(C(=O)Nc4ccc(C(=O)N5CCN(C(=O)C6CCNCC6)CC5)c(Cl)c4)n3C)c(F)n2)cc1` [Example E17, N-[3-chloro-4-[4-(piperidine-4-carbonyl)piperazine-1-carbonyl]phenyl]-5-[2-fluoro-6-[5-(4-methoxyphenyl)-1H-pyrazol-4-yl]-3-pyridyl]-1-methyl-imidazole-2-carboxamide; formic acid], for which the IC90 was determined as 710 nM.

In the case of `Cn1c(-c2ccc(-c3cn(CCOC(F)F)nc3C(F)(F)F)c(F)c2F)cnc1C(=O)Nc1ccc(C(=O)N2CCN(C(=O)C3CCNCC3)CC2)c(Cl)c1` [Example E6, N-[3-chloro-4-[4-(piperidine-4-carbonyl)piperazine-1-carbonyl]phenyl]-5-[4-[1-[2-(difluoromethoxy)ethyl]-3-(trifluoromethyl)pyrazol-4-yl]-2,3-difluoro-phenyl]-1-methyl-imidazole-2-carboxamide; formic acid], the IC90 was found to be 950 nM.

For `COCCn1ncc(-c2ccc(-c3cnc(C(=O)Nc4ccc(C(=O)N[C@H]5[C@@H]6CN(C(=O)[C@@H]7C[C@@H](O)C[N+]7(C)C)C[C@@H]65)c(Cl)c4)n3C)c(F)c2F)c1C` [Example D40, N-[3-chloro-4-[[(1S,5R)-3-[(2S,4R)-4-hydroxy-1,1-dimethyl-pyrrolidin-1-ium-2-carbonyl]-3-azabicyclo[3.10]hexan-6-yl]carbamoyl]phenyl]-5-[2,3-difluoro-4-[1-(2-methoxyethyl)-3,5-dimethyl-pyrazol-4-yl]phenyl]-1-methyl-imidazole-2-carboxamide; formate], the concentration for an effect of 90% (IC90) came out at 77 nM.

On to `COCCn1ncc(-c2ccc(-c3cnc(C(=O)Nc4ccc(C(=O)N5CCN(C(=O)C6CCNCC6)CC5)c(Cl)c4)n3C)c(C)c2F)c1C` [Example E5, N-[3-chloro-4-[4-(piperidine-4-carbonyl)piperazine-1-carbonyl]phenyl]-5-[3-fluoro-4-[1-(2-methoxyethyl)-5-methyl-pyrazol-4-yl]-2-methyl-phenyl]-1-methyl-imidazole-2-carboxamide; formic acid], for which the 90% effect concentration (IC90) was 180 nM.

Still in this assay, the particulars now being: Acinetobacter baumannii, ATCC17961, 16 h, read-out: ATCC 17961 IC90.
As to `COCCn1cc(-c2ccc(-c3cnc(C(=O)Nc4ccc(C(=O)N5CCN(C(=O)C6CC[N+]7(CC6)CCN(Cc6ccccc6)CC7)CC5)c(Cl)c4)n3C)c(F)c2F)c(C)n1` [Example Q2, N-[4-[4-(3-benzyl-3-aza-6-azoniaspiro[5.5]undecane-9-carbonyl)piperazine-1-carbonyl]-3-chloro-phenyl]-5-[2,3-difluoro-4-[1-(2-methoxyethyl)-3-methyl-pyrazol-4-yl]phenyl]-1-methyl-imidazole-2-carboxamide], the IC90 was 705 nM.

Consider `COCCn1ncc(-c2ccc(-c3cnc(C(=O)Nc4ccc(C(=O)N5CCN(C(=O)CCC[N+](CCCCN)(CCCCN)CC(=O)O)CC5C)c(Cl)c4)n3C)c(F)c2F)c1C` (stereo not shown) [Example O3, bis(4-aminobutyl)-(carboxymethyl)-[4-[4-[2-chloro-4-[[5-[2,3-difluoro-4-[1-(2-methoxyethyl)-5-methyl-pyrazol-4-yl]phenyl]-1-methyl-imidazole-2-carbonyl]amino]benzoyl]-3-methyl-piperazino]-4-keto-butyl]ammonium formate], for which the concentration for an effect of 90% (IC90) worked out at 113 nM.

`COCCn1nc(C)c(-c2ccc(-c3cnc(C(=O)Nc4ccc(C(=O)N5CCN(C(=O)C6CC[N+](C)(CCO)CC6)CC5)c(Cl)c4)n3C)cc2)c1C` (stereo not shown) [Example B11, N-[3-chloro-4-[4-[1-(2-hydroxyethyl)-1-methyl-piperidin-1-ium-4-carbonyl]piperazine-1-carbonyl]phenyl]-5-[4-[1-(2-methoxyethyl)-3,5-dimethyl-pyrazol-4-yl]phenyl]-1-methyl-imidazole-2-carboxamide; formate]: the 90% effect concentration (IC90) was 170 nM.

Consider `COCCn1cc(-c2ccc(-c3cnc(C(=O)Nc4ccc(C(=O)N5CCN(C(=O)C6CC[N+](C)(C)CC6)CC5)c(Cl)c4)n3C)c(F)c2F)c(C)n1` [Example A1, N-[3-chloro-4-[4-(1,1-dimethylpiperidin-1-ium-4-carbonyl)piperazine-1-carbonyl]phenyl]-5-[2,3-difluoro-4-[l-(2-methoxyethyl)-3-methyl-pyrazol-4-yl]phenyl]-1-methyl-imidazole-2-carboxamide; formate], for which the concentration for an effect of 90% (IC90) is 120 nM.

On to `COCCn1nc(C)c(-c2ccc(-c3cnc(C(=O)Nc4ccc(C(=O)N5CCN(C(=O)C6CC[N+](C)(CCOC)CC6)CC5)c(Cl)c4)n3C)c(F)c2F)c1C` (stereo not shown) [Example B9, N-[3-chloro-4-[4-[1-(2-methoxyethyl)-1-methyl-piperidin-1-ium-4-carbonyl]piperazine-1-carbonyl]phenyl]-5-[2,3-difluoro-4-[1-(2-methoxyethyl)-3,5-dimethyl-pyrazol-4-yl]phenyl]-1-methyl-imidazole-2-carboxamide; formate], for which the IC90 came out at 510 nM.
